Assay results from PubChem BioAssay AID1963827 (Molecular Pharmacology Branch, DTP, NCI, 2024).
pIC50: −log10 of the molar value.

Tested on: 994946-033-R-J1-PDC complex spheroid viability
Experiment: Anticancer human tumor 994946-033-R-J1-PDC patient-derived melanoma cell line growth inhibition [POLQ]
Details: for pIC50: curve of first compound; for viability, T/C: stronger effect = lower value
Outline: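 PDC + HUVEC + MSC complex spheroids; POLQ inhibitors ± partner drugs; top conc. at/near clinical Cmax, else 10 microM (SN-38 1 microM), half-log dilutions; 37 degrees C, 5% CO2.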

[1] = second compound 0.0316 µM, first compound 0.0316 µM
[2] = second compound 0.0316 µM, first compound 0.1 µM
[3] = second compound 0.0316 µM, first compound 0.316 µM
[4] = second compound 0.0316 µM, first compound 1 µM
[5] = second compound 0.1 µM, first compound 0.0316 µM
[6] = second compound 0.1 µM, first compound 0.1 µM
[7] = second compound 0.1 µM, first compound 0.316 µM
[8] = second compound 0.1 µM, first compound 1 µM
[9] = second compound 0.316 µM, first compound 0.0316 µM
[10] = second compound 0.316 µM, first compound 0.1 µM
[11] = second compound 0.316 µM, first compound 0.316 µM
[12] = second compound 0.316 µM, first compound 1 µM
[13] = second compound 1 µM, first compound 0.0316 µM
[14] = second compound 1 µM, first compound 0.1 µM
[15] = second compound 1 µM, first compound 0.316 µM
[16] = second compound 1 µM, first compound 1 µM
[17] = second compound 3.16 µM, first compound 0.0316 µM
[18] = second compound 3.16 µM, first compound 0.1 µM
[19] = second compound 3.16 µM, first compound 0.316 µM
[20] = second compound 3.16 µM, first compound 1 µM
[21] = second compound 10 µM, first compound 0.0316 µM
[22] = second compound 10 µM, first compound 0.1 µM
[23] = second compound 10 µM, first compound 0.316 µM
[24] = second compound 10 µM, first compound 1 µM
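Further: spheroids exposed to drugs for 7 days.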
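Wherever viability, T/C is given: 100% = DMSO vehicle treated spheroids.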

## CCc1c2c(nc3ccc(O)cc13)-c1cc3c(c(=O)n1C2)COC(=O)[C@]3(O)CC + COC1C(OC(N)=O)C(O)C(Oc2ccc3c(O)c(NC(=O)c4ccc(O)c(CC=C(C)C)c4)c(=O)oc3c2C)OC1(C)C
Second compound 0.0316 µM
  pIC50: > 8.50
Second compound 0.1 µM
  pIC50: > 8.50
Second compound 0.316 µM
  pIC50: > 8.50
Second compound 1 µM
  pIC50: > 8.50
Second compound 3.16 µM
  pIC50: > 8.50
Second compound 10 µM
  pIC50: > 8.50
Second compound 0.0316 µM, first compound 0.00316 µM
  viability, T/C: 21.2%
Second compound 0.0316 µM, first compound 0.01 µM
  viability, T/C: 10.5%
[1]
  viability, T/C: 5.04%
[2]
  viability, T/C: 6.46%
[3]
  viability, T/C: 4.53%
[4]
  viability, T/C: 1.07%
Second compound 0.1 µM, first compound 0.00316 µM
  viability, T/C: 14.8%
Second compound 0.1 µM, first compound 0.01 µM
  viability, T/C: 7.14%
[5]
  viability, T/C: 4.91%
[6]
  viability, T/C: 4.35%
[7]
  viability, T/C: 3.22%
[8]
  viability, T/C: 0.99%
Second compound 0.316 µM, first compound 0.00316 µM
  viability, T/C: 20.7%
Second compound 0.316 µM, first compound 0.01 µM
  viability, T/C: 8.29%
[9]
  viability, T/C: 4.94%
[10]
  viability, T/C: 5%
[11]
  viability, T/C: 3.67%
[12]
  viability, T/C: 0.92%
Second compound 1 µM, first compound 0.00316 µM
  viability, T/C: 21.2%
Second compound 1 µM, first compound 0.01 µM
  viability, T/C: 8.21%
[13]
  viability, T/C: 5.36%
[14]
  viability, T/C: 4.87%
[15]
  viability, T/C: 3%
[16]
  viability, T/C: 0.93%
Second compound 3.16 µM, first compound 0.00316 µM
  viability, T/C: 17.8%
Second compound 3.16 µM, first compound 0.01 µM
  viability, T/C: 9.17%
[17]
  viability, T/C: 4.15%
[18]
  viability, T/C: 4.13%
[19]
  viability, T/C: 3.2%
[20]
  viability, T/C: 0.9%
Second compound 10 µM, first compound 0.00316 µM
  viability, T/C: 16.8%
Second compound 10 µM, first compound 0.01 µM
  viability, T/C: 6.62%
[21]
  viability, T/C: 5.93%
[22]
  viability, T/C: 4.77%
[23]
  viability, T/C: 2.81%
[24]
  viability, T/C: 1.02%

## O=C(c1cc(Cc2n[nH]c(=O)c3ccccc23)ccc1F)N1CCN(C(=O)C2CC2)CC1 + COC1C(OC(N)=O)C(O)C(Oc2ccc3c(O)c(NC(=O)c4ccc(O)c(CC=C(C)C)c4)c(=O)oc3c2C)OC1(C)C
Second compound 0.0316 µM
  pIC50: 5.32
Second compound 0.1 µM
  pIC50: 5.34
Second compound 0.316 µM
  pIC50: 5.30
Second compound 1 µM
  pIC50: 5.39
Second compound 3.16 µM
  pIC50: 5.32
Second compound 10 µM
  pIC50: 5.38
[1]
  viability, T/C: 56.5%
[2]
  viability, T/C: 91.1%
[3]
  viability, T/C: 100%
[4]
  viability, T/C: 87.1%
Second compound 0.0316 µM, first compound 3.16 µM
  viability, T/C: 57.7%
Second compound 0.0316 µM, first compound 10 µM
  viability, T/C: 35.9%
[5]
  viability, T/C: 110%
[6]
  viability, T/C: 81.5%
[7]
  viability, T/C: 87.1%
[8]
  viability, T/C: 73.5%
Second compound 0.1 µM, first compound 3.16 µM
  viability, T/C: 72.4%
Second compound 0.1 µM, first compound 10 µM
  viability, T/C: 22.2%
[9]
  viability, T/C: 93.2%
[10]
  viability, T/C: 82.2%
[11]
  viability, T/C: 86.4%
[12]
  viability, T/C: 67.7%
Second compound 0.316 µM, first compound 3.16 µM
  viability, T/C: 69.8%
Second compound 0.316 µM, first compound 10 µM
  viability, T/C: 28.9%
[13]
  viability, T/C: 99.1%
[14]
  viability, T/C: 84.5%
[15]
  viability, T/C: 90.2%
[16]
  viability, T/C: 69.1%
Second compound 1 µM, first compound 3.16 µM
  viability, T/C: 58.1%
Second compound 1 µM, first compound 10 µM
  viability, T/C: 28.1%
[17]
  viability, T/C: 84.7%
[18]
  viability, T/C: 83.2%
[19]
  viability, T/C: 88.4%
[20]
  viability, T/C: 76.6%
Second compound 3.16 µM, first compound 3.16 µM
  viability, T/C: 60.4%
Second compound 3.16 µM, first compound 10 µM
  viability, T/C: 32.2%
[21]
  viability, T/C: 95.5%
[22]
  viability, T/C: 79.2%
[23]
  viability, T/C: 86%
[24]
  viability, T/C: 69.9%
Second compound 10 µM, first compound 3.16 µM
  viability, T/C: 60.8%
Second compound 10 µM, first compound 10 µM
  viability, T/C: 27.1%
